One experiment concerns the target T1, human DOR (Homo sapiens, UniProt P41143).
T1 construct: expressed in transfected cells; host or cells: CHO cells (CHO-hDOR), gift of Lawrence Toll, SRI International
Put plainly: Radioligand competitive binding assay with [3H]DPDPE, membranes from CHO-hDOR cells. To be noted: compound at 10 μM.

Experiment [1] has as its target T2, human KOR (Homo sapiens, UniProt P41145). The experiment can be described thus: Radioligand competitive binding assay with [3H]U69,593, membranes from CHO-hKOR cells. The following applies: for inhibition at 10 µM: read-out: inhibition of [3H]U69,593 binding at the KOR; for Ki: read-out: binding affinity Ki.
Another experiment has as its target T3, human MOR (Homo sapiens, UniProt P35372).
T3 construct: expressed in transfected cells; host or cells: CHO cells (CHO-hMOR), gift of Lawrence Toll, SRI International
The class given is binding.

The target of experiment [2] is T2, human KOR. The experiment can be described thus: [35S]GTPγS binding assay (G protein activation), CHO-hKOR cell membranes. The class given is biochemical. The following applies: for Emax: read-out: G protein activation Emax. (In general: GTPγS is a poorly hydrolysed GTP analogue; its binding reports G protein activation.)
Experiment [3] deals with T2, human KOR. The experiment can be described thus: [35S]GTPγS binding assay, antagonist study: inhibition of U69,593-induced stimulation, CHO-hKOR membranes. In kind it is biochemical. The following applies: U69,593 1 μM.
The target in experiment [4] is T2, human KOR. The experiment can be described thus: PathHunter β-arrestin2 recruitment assay, U2OS-hKOR-β-arrestin2 cells. In kind it is cell-based. To be noted: for EC50: U2OS cells coexpressing hKOR and β-arrestin2, tested up to 10 μM, read-out: β-arrestin2 recruitment EC50 (dash symbol).
Experiment [5] has as its target T2, human KOR. Put plainly: [35S]GTPγS binding assay, antagonist study: inhibition of U69,593-induced stimulation, CHO-hKOR membranes. The following applies: U69,593 1 μM; read-out: inhibition of U69,593-induced stimulation of [35S]GTPγS binding, Inhibition. In kind it is biochemical.
A further experiment concerns KOR. To be noted: cited from earlier work.
The target of experiment [6] is T2, human KOR. Put plainly: [35S]GTPγS binding assay, antagonist study: inhibition of U69,593-induced stimulation, CHO-hKOR membranes. More on the design: dose or concentration left out as unconfirmed. To be noted: read-out: inhibition of U69,593-induced stimulation of [35S]GTPγS binding, Inhibition. The class given is biochemical.

Where two headings read alike, the source gives them in different places.

On to `CCO[C@@]12Cc3c([nH]c4ccccc34)[C@]3(C)Oc4c(O)ccc5c4[C@@]31CCN(CC1CC1)C2C5` [HS378, reference compound], for which the “binding at the DOR” value on human DOR is “significant binding”.
For orientation: inhibition means the relative decrease from the control value, in per cent. In general, Ki refers to the dissociation constant of the complex between target and ligand, obtained from inhibition or displacement. One may read the EC50 as the concentration at which the effect is half-maximal. Broadly, the Emax is the greatest response seen or fitted, relative to the assay's reference. For orientation: IC50 means the concentration at which inhibition is half-maximal. `Cc1cc2n(n1)C1(CCN(C(=O)c3ccc(Cl)cc3)CC1)CC(=O)N2CC1CC1` [SalA-VS-07]: the inhibition at 10 µM on human KOR [1] (compound at 10 μM) is above 50%. At human KOR [1], the Ki was found to be 423 ± 97 nM. Also, the “binding at the MOR” value at human MOR was “no substantial binding”. Also, the “binding at the DOR” value at human DOR is given as “no substantial binding”. At human KOR [2], this molecule showed an EC50 of 181 ± 49 nM. The Emax on human KOR [2] (relative to maximal effect of U69,593 (as 100%)) amounted to 48 ± 7%. The IC50 on human KOR [3] is 1270 ± 334 nM. Besides, on human KOR [4], the “β-arrestin2 recruitment upon activation of the KOR (in words)” value is reported as “failed to induce β-arrestin2 recruitment” and the EC50 was above 10000 nM. In addition, the inhibition at human KOR [5] was determined as 52 ± 4%.
As for `Cc1cc2n(n1)C1(CCN(C(=O)c3cccc(F)c3)CC1)CC(=O)N2CC1CC1` [SalA-VS-08], on human KOR [1], the “increased affinity at the KOR than SalA-VS-07” value is “about 6 fold”, the Ki worked out at 68.5 ± 5.5 nM and the inhibition at 10 µM was above 50%. The “binding at the MOR” value at human MOR is listed as “no substantial binding”. Moreover, at human DOR, the “binding at the DOR” value is given as “no substantial binding”. Also, on human KOR [2], the EC50 came out at 854 ± 60 nM, the “lower agonist potency at the KOR compared to SalA-VS-07” value is listed as 5 fold and the Emax came out at 108 ± 8%. Also, at human KOR [4], the “β-arrestin2 recruitment upon activation of the KOR (in words)” value was “failed to induce β-arrestin2 recruitment” and the half-maximal effective concentration (EC50) was above 10000 nM.
For `Cc1cc2n(n1)C1(CCN(C(=O)c3ccncc3)CC1)CC(=O)N2CC1CC1` [SalA-VS-09], on human KOR [1] (binding screen at 10 μM), the “KOR activity (in words)” value is “inactive”.
As to `COC(=O)[C@@H]1C[C@H](O)C(=O)[C@H]2[C@@]1(C)CC[C@H]1C(=O)O[C@H](c3ccoc3)C[C@]21C` [SalB, Salvinorin B], the “activity at the KOR (in words)” value with KOR is “inactive”.
Turning to `Oc1ccc2c3c1O[C@H]1c4[nH]c5c(c4C[C@@]4(O)[C@@H](C2)N(CC2CC2)CC[C@]314)C[C@@]1(O)[C@H]2Cc3ccc(O)c4c3[C@@]1(CCN2CC1CC1)[C@H]5O4` [nor-BNI, nor-binaltorphimine, reference compound], the inhibition on human KOR [6] amounted to 92 ± 6%.

The values are drawn from publication PMC11345774, “Discovery of Novel, Selective, and Nonbasic Agonists for the Kappa-Opioid Receptor Determined by Salvinorin A-Based Virtual Screening” (Journal of Medicinal Chemistry, 2024).
